{"source": "patent EP4664463A1", "about": "“COMPUTER-IMPLEMENTED METHOD FOR OLFACTORY PROPERTY PREDICTION” (Givaudan SA, priority 2024, dated 2025)", "key": {"OR5A1 [1]": {"target": "T1, OR5A1 (Homo sapiens, UniProt Q8NGJ0)", "T1 construct": "expressed in transfected cells; host or cells: HEK293T cells stably expressing human RTP1S (V227I) and RTP2 (L220R)", "experiment": "Luciferase dose-response, wild-type vs changed C-terminus (SEQ ID NO: 86)", "format": "cell-based"}, "OR5A1 [2]": {"target": "T2, OR5A1 (Homo sapiens, UniProt Q8NGJ0, I300V)", "T2 construct": "expressed in transfected cells; host or cells: HEK293T cells stably expressing human RTP1S (V227I) and RTP2 (L220R)", "T2 sequence (Q8NGJ0 with tags, fused parts or gaps I300V)": "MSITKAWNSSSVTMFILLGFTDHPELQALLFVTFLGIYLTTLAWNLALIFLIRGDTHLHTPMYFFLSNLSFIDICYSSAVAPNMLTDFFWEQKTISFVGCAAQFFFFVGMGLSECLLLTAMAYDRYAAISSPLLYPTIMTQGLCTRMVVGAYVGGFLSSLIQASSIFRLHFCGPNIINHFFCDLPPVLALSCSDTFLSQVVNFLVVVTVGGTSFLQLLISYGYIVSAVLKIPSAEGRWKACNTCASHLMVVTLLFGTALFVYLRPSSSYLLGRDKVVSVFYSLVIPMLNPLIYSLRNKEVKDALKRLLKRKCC", "experiment": "Luciferase dose-response, wild-type vs changed C-terminus (SEQ ID NO: 86)", "format": "cell-based"}, "OR5A1 [3]": {"system": "OR5A1", "experiment": "Luciferase dose-response, wild-type vs changed C-terminus (SEQ ID NO: 86)", "format": "cell-based, human"}, "OR5A2 [4]": {"target": "T3, OR5A2 (Homo sapiens, UniProt Q8NGI9)", "T3 construct": "expressed in transfected cells; host or cells: HEK293T cells with stably integrated human RTP1S (V227I) and RTP2 (L220R)", "T3 sequence (Q8NGI9 1-324)": "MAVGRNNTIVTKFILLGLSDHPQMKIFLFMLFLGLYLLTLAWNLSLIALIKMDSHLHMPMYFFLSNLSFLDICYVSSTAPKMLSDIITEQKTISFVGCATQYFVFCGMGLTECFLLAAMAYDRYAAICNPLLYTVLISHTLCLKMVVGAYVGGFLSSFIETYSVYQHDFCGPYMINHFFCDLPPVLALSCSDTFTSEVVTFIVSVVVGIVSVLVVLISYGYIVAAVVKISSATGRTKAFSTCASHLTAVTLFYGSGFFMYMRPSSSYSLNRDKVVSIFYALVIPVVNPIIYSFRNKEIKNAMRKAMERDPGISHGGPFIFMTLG", "experiment": "Luciferase dose-response, wild-type vs changed C-terminus (SEQ ID NO: 86)", "format": "cell-based", "excerpt": "(§1) To create an expression plasmid, an OR coding sequence fused at the end of TM7 to the desired C-terminus sequence was synthesized by a DNA synthesis service provider (BioCat GmbH, Germany) and inserted into pcDNA3.1(+) (Invitrogen, MA, USA) downstream of the CMV promoter sequence (SEQ ID NO: 82) using BamHI and Notl restriction sites. All the synthetic OR nucleotide sequences described below in Examples 1-15 further contained at their N-terminus a nucleotide sequence encoding a signal peptide (mmLucy-FLAG-rho, SeQ ID NOs: 80, 81) and at the C-terminus the bgh terminator sequence (SEQ ID NO: 83). All the OR expression plasmids also contain a Kozak sequence (GCCACC) between the BamHI restriction site and the start codon of the signal peptide. These plasmids thus contain a constitutively expressed OR gene."}, "OR5A2 [5]": {"target": "T4, OR5A2 (Homo sapiens, UniProt Q8NGI9)", "T4 construct": "expressed in transfected cells; host or cells: HEK293T cells with stably integrated human RTP1S (V227I) and RTP2 (L220R)", "T4 sequence (Q8NGI9 with tags, fused parts or gaps)": "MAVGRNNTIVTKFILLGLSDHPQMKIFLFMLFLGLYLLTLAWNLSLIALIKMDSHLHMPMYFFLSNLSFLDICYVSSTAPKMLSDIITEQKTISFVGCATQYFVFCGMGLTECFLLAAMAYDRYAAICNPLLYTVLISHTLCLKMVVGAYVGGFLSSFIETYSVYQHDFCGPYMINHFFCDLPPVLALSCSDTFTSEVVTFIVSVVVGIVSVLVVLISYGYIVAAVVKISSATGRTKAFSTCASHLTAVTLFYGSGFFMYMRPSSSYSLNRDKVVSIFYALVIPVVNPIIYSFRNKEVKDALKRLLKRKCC", "experiment": "Luciferase dose-response, wild-type vs changed C-terminus (SEQ ID NO: 86)", "format": "cell-based", "excerpt": "as §1", "remark": "listed apart in the source"}, "OR5A2 [6]": {"system": "OR5A2", "experiment": "Luciferase dose-response, wild-type vs changed C-terminus (SEQ ID NO: 86)", "format": "cell-based, human", "excerpt": "as §1"}, "OR4S2 [7]": {"target": "T5, OR4S2 (Homo sapiens, UniProt Q8NH73)", "T5 construct": "expressed in transfected cells; host or cells: HEK293T stably expressing human RTP1S(V227I) and RTP2(L220R)", "experiment": "cell-based", "format": "cell-based", "excerpt": "as §1"}, "OR4S2 [8]": {"target": "T6, OR4S2 (Homo sapiens, UniProt Q8NH73, A290K)", "T6 construct": "expressed in transfected cells; host or cells: HEK293T stably expressing human RTP1S(V227I) and RTP2(L220R)", "T6 sequence (Q8NH73 with tags, fused parts or gaps A290K)": "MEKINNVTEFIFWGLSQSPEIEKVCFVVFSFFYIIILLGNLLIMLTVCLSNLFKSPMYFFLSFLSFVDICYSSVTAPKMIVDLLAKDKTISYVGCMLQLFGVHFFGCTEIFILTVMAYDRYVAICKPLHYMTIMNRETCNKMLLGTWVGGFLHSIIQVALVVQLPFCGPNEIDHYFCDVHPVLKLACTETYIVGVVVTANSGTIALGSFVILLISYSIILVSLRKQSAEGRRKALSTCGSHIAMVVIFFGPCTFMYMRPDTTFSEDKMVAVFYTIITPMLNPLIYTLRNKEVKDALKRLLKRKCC", "experiment": "cell-based", "format": "cell-based", "excerpt": "as §1"}, "OR4S2 [9]": {"system": "OR4S2", "experiment": "cell-based", "format": "cell-based, human", "excerpt": "as §1"}, "OR10J5": {"target": "T7, OR10J5 (Homo sapiens, UniProt Q8NHC4)", "T7 construct": "expressed in transfected cells; host or cells: HEK293T cells stably expressing human RTP1S (V227I) and RTP2 (L220R)", "T7 sequence (Q8NHC4 with tags, fused parts or gaps)": "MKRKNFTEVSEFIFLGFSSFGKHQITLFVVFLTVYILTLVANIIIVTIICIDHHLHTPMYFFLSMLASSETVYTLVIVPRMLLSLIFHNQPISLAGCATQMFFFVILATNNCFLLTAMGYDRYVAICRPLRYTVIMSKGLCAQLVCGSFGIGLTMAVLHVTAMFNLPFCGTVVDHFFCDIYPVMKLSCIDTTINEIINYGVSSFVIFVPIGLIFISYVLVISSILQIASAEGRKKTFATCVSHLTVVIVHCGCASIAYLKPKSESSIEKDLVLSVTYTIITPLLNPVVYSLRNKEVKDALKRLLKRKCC", "experiment": "OR10J5 (SEQ ID NO: 86) dose-response of isomers, EC20% relative to positive control", "format": "cell-based", "conditions": "20 % of positive control (100µM Mahonial); OR10J5 with SEQ ID NO: 86", "excerpt": "Once a strong ligand is known for a given OR and the concentration of that ligand for maximal OR activation, this ligand (tested at its maximal inducing concentration) can be introduced as a positive control into the experiment, and fold-luciferase can be reported as % activation of the positive control according to the following formula: % activation = (Fold luciferase activation test compound−1)/(Fold luciferase activation positive control−1) × 100 [formula]\nActivation of OR10J5 with the C-terminal domain of SEQ ID NO: 86 by (S,E)-10-hydroxy-4,8-dimethyldec-4-enal or (R,E)-10-hydroxy-4,8-dimethyldec-4-enal was measured in a dose-response analysis.\nPotency of the two tested OR10J5 ligands is expressed as the EC20% value, which is the concentration that leads to a 20 % increase of the luciferase activity relative to the positive control (100µM, Mahonial; (4E)-9-hydroxy-5,9-dimethyl-4-Decenal). […] Because of the difference in EC20%, a much lower concentration of the (S,E)-isomer is needed to activate the receptor compared to the concentration needed of the (R,E)-isomer. […] This example further illustrates the usefulness of the improved assay to determine the most odor-active isomers."}, "OR5AN1": {"target": "T8, OR5AN1 (Homo sapiens, UniProt Q8NGI8)", "T8 construct": "expressed in transfected cells; host or cells: HEK293T stably expressing human RTP1S(V227I) and RTP2(L220R)", "T8 sequence (Q8NGI8 with tags, fused parts or gaps limits assumed)": "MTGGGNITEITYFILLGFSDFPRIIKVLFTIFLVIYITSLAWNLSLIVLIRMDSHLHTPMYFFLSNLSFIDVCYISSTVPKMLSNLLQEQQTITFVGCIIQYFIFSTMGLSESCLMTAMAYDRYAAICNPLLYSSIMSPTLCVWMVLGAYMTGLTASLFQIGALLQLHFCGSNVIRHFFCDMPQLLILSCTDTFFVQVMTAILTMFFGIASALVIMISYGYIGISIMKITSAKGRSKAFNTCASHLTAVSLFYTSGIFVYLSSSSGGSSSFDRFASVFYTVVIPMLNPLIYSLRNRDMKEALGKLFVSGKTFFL", "experiment": "Chimeric OR5AN1 with C-terminal sequence of OR1N2 (luciferase)", "format": "cell-based", "excerpt": "Similarly, the C-terminal sequence of OR5AN1 was replaced with the C-terminal sequence of the ambrettolide receptor OR1 N2."}}, "data": [{"smiles": "CC(=O)/C=C/C1=C(C)CCCC1(C)C", "note": "[Beta-ionone]", "values": [{"measurement": "EC50", "setting": "OR5A1 [1]", "result": 5.5, "unit": "µM"}, {"measurement": "Detection threshold; concentration for 2-fold induction", "setting": "OR5A1 [1]; wild-type", "result": 19.1, "unit": "µM"}, {"measurement": "EC50", "setting": "OR5A1 [2]", "result": 3.1, "unit": "µM"}, {"measurement": "Detection threshold; concentration for 2-fold induction", "setting": "OR5A1 [2]; changed C-term. SEQ ID NO: 86", "result": 3.2, "unit": "µM"}, {"measurement": "Comments on efficacy", "setting": "OR5A1 [3]", "result": "4-fold lower maximal induction for wild-type"}, {"measurement": "Fold-improvement potency", "setting": "OR5A1 [3]", "result": 1.8}, {"measurement": "Fold-improvement threshold", "setting": "OR5A1 [3]", "result": 5.9}]}, {"smiles": "CC1COCc2cc3c(cc21)C(C)(C)C(C)C3(C)C", "note": "(centres unmarked) [Galaxolide]", "values": [{"measurement": "EC50", "setting": "OR5A2 [4]; Potency EC50, wild-type", "result": "> 31", "unit": "µM"}, {"measurement": "Detection threshold; concentration for 2-fold induction", "setting": "OR5A2 [4]; wild-type", "result": "n.i. (>> 31) µM"}, {"measurement": "activation of the wild-type receptor", "setting": "OR5A2 [4]; wild-type OR5A2", "result": "No activation"}, {"measurement": "concentration at which activation occurs", "setting": "OR5A2 [5]; OR5A2 with SEQ ID NO: 86", "result": "< 0.01", "unit": "µM"}, {"measurement": "EC50", "setting": "OR5A2 [5]; Potency EC50, changed C-term SEQ ID NO: 86", "result": 0.1, "unit": "µM"}, {"measurement": "Detection threshold; concentration for 2-fold induction", "setting": "OR5A2 [5]; changed C-term. SEQ ID NO: 86", "result": 0.0016, "unit": "µM"}, {"measurement": "Comments on efficacy", "setting": "OR5A2 [6]", "result": "No induction wild-type"}, {"measurement": "Fold-improvement potency", "setting": "OR5A2 [6]", "result": ">300"}, {"measurement": "Fold-improvement threshold", "setting": "OR5A2 [6]", "result": ">20000"}]}, {"smiles": "c1ccc2scnc2c1", "note": "[Benzothiazole]", "values": [{"measurement": "Detection threshold; concentration for 2-fold induction", "setting": "OR4S2 [7]", "result": 29.4, "unit": "µM"}, {"measurement": "EC50", "setting": "OR4S2 [7]; wild-type, read-out: Potency EC50", "result": 137, "unit": "µM"}, {"measurement": "Detection threshold; concentration for 2-fold induction", "setting": "OR4S2 [8]", "result": 12.5, "unit": "µM"}, {"measurement": "EC50", "setting": "OR4S2 [8]; changed C-term SEQ ID NO: 86, read-out: Potency EC50", "result": 104, "unit": "µM"}, {"measurement": "Comments on efficacy", "setting": "OR4S2 [9]", "result": "2-fold lower maximal induction for wild-type"}, {"measurement": "Fold-improvement potency", "setting": "OR4S2 [9]", "result": 1.3}, {"measurement": "Fold-improvement threshold", "setting": "OR4S2 [9]", "result": 2.4}]}, {"smiles": "C/C(=C\\CC[C@@H](C)CCO)CCC=O", "note": "[(R,E)-10-hydroxy-4,8-dimethyldec-4-enal]", "values": [{"measurement": "EC20%", "setting": "OR10J5", "result": 24.4, "unit": "µM"}]}, {"smiles": "CC(=O)c1c(C)c([N+](=O)[O-])c(C(C)(C)C)c([N+](=O)[O-])c1C", "note": "[Musk ketone]", "values": [{"measurement": "functional response", "setting": "OR5AN1", "result": "not showing any functional response"}]}, {"smiles": "C/C(=C\\CC[C@H](C)CCO)CCC=O", "note": "[(S,E)-10-hydroxy-4,8-dimethyldec-4-enal]", "values": [{"measurement": "EC20%", "setting": "OR10J5", "result": 10.1, "unit": "µM"}]}]}
